Measurements: PMC8396040, “Direct Synthesis of Polyaromatic Cyclophanes Containing Bis-Methylene-Interrupted Z-Double Bonds and Study of Their Antitumor Activity In Vitro” (International Journal of Molecular Sciences, 2021)
Converted amounts (≈) assume the structure as drawn.

Tests used:
HL-60 = assay: Cytotoxicity, flow cytofluorimetry (Guava ViaCount / 7-AAD); type: cell-based; settings: Homo sapiens, mean ± SEM, at least 3 independent experiments
Experimental: (§1) The cytotoxicity of the prepared compounds was studied using Jurkat, K562, U937, and HL-60 suspension tumor cells; conditionally normal Hek293 cells; and normal fibroblasts. The IC50 values were determined by flow cytofluorimetry with the Guava ViaCount reagent kit (Millipore, Bedford, MA, USA).
(§2) Cells (Jurkat, K562, U937, HL-60, HEK293, and normal fibroblasts) were purchased from HPA Culture Collections (Salisbury, UK) and cultured according to standard mammalian tissue culture protocols and the sterile technique. All cell lines used in the study were tested and shown to be free of mycoplasma and other […] contamination. HEK293 and fibroblast cell lines were cultured as monolayers and maintained in Dulbecco’s modified Eagle’s medium (DMEM, Gibco BRL, Waltham, MA, USA) supplemented with 10% fetal bovine serum and 1% penicillin-streptomycin solution at 37 °C in a humidified incubator under a 5% CO2 atmosphere.
(§3) Cells were maintained in RPMI 1640 (Jurkat, K562, U937, HL60) (Gibco, Waltham, MA, USA) supplemented with 4 mM glutamine, 10% FBS (Sigma, Burlington, MA, USA), and 100 units/ml penicillin–streptomycin (Sigma, Burlington, MA, USA). All types of cells were grown in an atmosphere of 5% CO2 at 37 °C. The cells were subcultured at 2–3-day intervals. Adherent cells (HEK293 and normal fibroblasts) were suspended using trypsin/EDTA and counted after they reached 80% confluency. Cells were then seeded in 24-well plates at 5 × 10^4 cells per well and incubated overnight. Jurkat, K562, U937, and HL60 cells were subcultured at 2-day intervals with a seeding density of 1 × 10^5 cells per 24-well plates in RPMI with 10% FBS.
(§4) Viability (live/dead) assessment was performed by staining cells with 7-AAD (7-Aminoactinomycin D) (Biolegend, Fell, Germany). After treatment, cells were harvested, washed 1–2 times with phosphate-buffered saline (PBS), and centrifuged at 400× g for 5 min. Cell pellets were resuspended in […] of flow cytometry staining buffer (PBS without Ca^2+ and Mg^2+, 2.5% FBS) and stained with 5 μL of 7-AAD staining solution for 15 min at room temperature in the dark. Samples were acquired on a NovoCyteTM 2000 FlowCytometry System (ACEA) equipped with a 488 nm argon laser. Detection of 7-AAD emission was collected through a 675/30 nm filter in FL4 channel.

Hek293 = assay: as above; type: cell-based; settings: Homo sapiens, mean ± SEM, at least 3 independent experiments
Experimental: as §1, §2, §3, §4

Jurkat = assay: as above; type: cell-based; settings: Homo sapiens, mean ± SEM, at least 3 independent experiments
Experimental: as §1, §2, §3, §4

K562 = assay: as above; type: cell-based; settings: Homo sapiens, mean ± SEM, at least 3 independent experiments
Experimental: as §1, §2, §3, §4

U937 = assay: as above; type: cell-based; settings: Homo sapiens, U-937; mean ± SEM, at least 3 independent experiments
Experimental: as §1, §2, §3, §4

normal fibroblasts = assay: as above; type: cell-based; settings: Fibroblast; mean ± SEM, at least 3 independent experiments; read-out: Fibrobl. (IC50)
Experimental: as §1, §2, §3, §4

Jurkat cells [1] = assay: Induction of apoptosis, Annexin V / 7AAD flow cytometry; type: cell-based; settings: 24 h; for apoptosis-inducing effect, dependence on dose: 0.1-0.3 µM
Experimental: We studied the new macrodiolides for the induction of apoptosis and for the effect on the cell cycle. For this purpose, we chose the Jurkat, K562, and U937 cell lines. Apoptosis was studied by flow cytofluorimetry using Annexin V and 7-aminoactinomycin D (7AAD) (Guava Nexin reagent (Millipore, Bedford, MA, USA)). After incubation, the cells were analyzed using a NovoCyte™ 2000 Flow Cytometry System (ACEA). Apoptotic cells are characterized by externalization of the phosphatidylserine (PS) phospholipid, which is normally located, in living cells, on the inner surface of the cell membrane. The phospholipid location on the outer membrane surface can be detected from early apoptosis up to complete cell degradation. […] The use of Annexin V in combination with 7AAD allows simultaneous discrimination between viable cells (V–/7AAD–), early apoptotic cells (V+/7AAD–), and late apoptotic or necrotic cells (V+/7AAD+).
Induction of apoptosis tests were carried out following the known procedure. Apoptosis was determined by flow cytometric analysis of Annexin V and 7-aminoactinomycin D staining. After treatment, cells during 24 h were harvested, washed 1–2 times with phosphate-buffered saline (PBS), and centrifuged at 400× g for 5 min. Cell pellets were resuspended in 200 μL of flow cytometry staining buffer (PBS without Ca^2+and Mg^2+, 2.5% FBS). Then, 200 μL of Guava Nexin reagent (Millipore, Bedford, MA, USA) were added to 5 × 10^5 cells in 200 μL, and the cells were incubated with the reagent for 20 min at room temperature in the dark. At the end of incubation, the cells were analyzed on a NovoCyteTM 2000 FlowCytometry System (ACEA, San Diego, CA, USA).

Jurkat cells [2] = assay: Mitochondrial damage, MitoSense Red / Annexin V-CF488A / 7-AAD (FlowCellect MitoDamage Kit); type: cell-based; settings: for percentage of Jurkat tumor cells with reduced Δψ: 4 h (Figure 4)
Source text: The changes in the mitochondrial membrane potential (ΔΨ) in Jurkat cells induced by treatment with compounds 8a, 8b, and 8c were detected using the MitoSense Red, a fluorescent dye, which is mainly accumulated in mitochondria and responds to changes in the membrane potential. The viable whole-body cells induce a high fluorescence level of MitoSense Red, whereas cells with dissipated mitochondrial membrane potential cause much lower fluorescence of MitoSense Red or no fluorescence. Annexin V and 7AAD are two dyes commonly used to detect apoptotic cells. […] Thus, using three different dyes, MitoSense Red, Annexin V (CF488A), and 7-AAD, we analyzed the dissipation of the mitochondrial membrane potential and the related apoptosis in Jurkat tumor cells in response to the action of synthesized macrodiolides (Figure 4).
Mitochondrial damage tests were carried out following the known procedure. Cytometric assay (Millipore’s FlowCellect™MitoDamage Kit, Merck, Burlington, MA, USA) that allowed multiparametric evaluation of three cell health markers: change in mitochondrial potential (early apoptosis and cellular stress), phosphatidylserine expression on the cell surface […], and membrane permeabilization (cell death), was used.

Jurkat cells [3] = assay: Cell cycle analysis (Guava Cell Cycle Reagent); type: cell-based; settings: IC50 concentrations (8a 0.15 µM, 8b 0.16 µM, 8c 0.13 µM), 24 h
Experimental: Cell cycle analysis was carried out following the known procedure. Guava Cell Cycle Reagent (Millipore, Burlington, MA, USA) was used. Samples were analyzed on a NovoCyteTM 2000 FlowCytometry System (ACEA, San Diego, CA, USA).

[4] = system: HT-29 human colon cancer cells; set-up: method as in PMID 12530851, PMID 16551088; settings: HT-29 cell line; cited from earlier work

Row | SMILES | IC50 (HL-60) | IC50 (Hek293) | IC50 (Jurkat) | IC50 (K562) | IC50 (U937) | IC50 (normal fibroblasts) | apoptosis-inducing effect, dependence on dose (Jurkat cells [1]) | action on mitochondria (reduction of mitochondrial potential) compared with staurosporine (Jurkat cells [2]) | percentage of Jurkat tumor cells with reduced Δψ (Jurkat cells [2]; 0.15 µM) | Freq G1 (percentage of cells in G0/G1 phase) (Jurkat cells [3]) | An+,PI+ cells (late apoptosis) (Jurkat cells [1]; 0.1 µM) | An+,PI+ cells (late apoptosis) (Jurkat cells [1]; 0.3 µM) | PI+ cells (necrotic) (Jurkat cells [1]; 0.3 µM) | percentage of apoptotic cells (early apoptosis and late apoptosis) (Jurkat cells [2]; 0.15 µM, 4 h) | Freq Sub-G1 (cells in the sub-G0-G1 range) (Jurkat cells [3]) | IC50 [4]
1 | O=C1OCCC/C=C\CC/C=C\CCCOC(=O)c2ccccc2OCc2ccccc2COc2ccccc21 [6a, (10Z,14Z)-7,8,9,12,13,16,17,18,26,31-decahydro-5H,20H-tribenzo[c,g,k][1,5,10,14]tetraoxacyclohexacosine-5,20-dione] | 430 ± 30 nM | 1940 ± 170 nM | 390 ± 30 nM | 610 ± 50 nM | 490 ± 40 nM | 4710 ± 420 nM |  |  |  |  |  |  |  |  |  | 
2 | O=C1OCCC/C=C\CC/C=C\CCCOC(=O)c2ccccc2OCc2cccc(c2)COc2ccccc21 [6b, (13Z,17Z)-2,6,9,22-tetraoxa-1,7(1,2),4(1,3)-tribenzenacyclotricosaphane-13,17-diene-8,23-dione] | 440 ± 40 nM | 2180 ± 210 nM | 480 ± 50 nM | 640 ± 60 nM | 510 ± 50 nM | 5090 ± 470 nM |  |  |  |  |  |  |  |  |  | 
3 | O=C1OCCC/C=C\CC/C=C\CCCOC(=O)c2ccccc2OCc2ccc(cc2)COc2ccccc21 [6c, (13Z,17Z)-2,6,9,22-tetraoxa-1,7(1,2),4(1,4)-tribenzenacyclotricosaphane-13,17-diene-8,23-dione] | 400 ± 30 nM | 1760 ± 160 nM | 340 ± 30 nM | 580 ± 50 nM | 460 ± 40 nM | 4220 ± 390 nM |  |  |  |  |  |  |  |  |  | 
4 | O=C1OCCCC/C=C\CC/C=C\CCCCOC(=O)c2ccccc2OCc2ccccc2COc2ccccc21 [7a, (11Z,15Z)-7,8,9,10,13,14,17,18,19,20,28,33-dodecahydro-5H,22H-tribenzo[c,g,k][1,5,10,14]tetraoxacyclooctacosine-5,22-dione] | 940 ± 80 nM | 3860 ± 340 nM | 490 ± 40 nM | 760 ± 80 nM | 560 ± 60 nM | 7120 ± 590 nM |  |  |  |  |  |  |  |  |  | 
5 | O=C1OCCCC/C=C\CC/C=C\CCCCOC(=O)c2ccccc2OCc2cccc(c2)COc2ccccc21 [7b, (14Z,18Z)-2,6,9,24-tetraoxa-1,7(1,2),4(1,3)-tribenzenacyclopentacosaphane-14,18-diene-8,25-dione] | 970 ± 90 nM | 4210 ± 390 nM | 940 ± 80 nM | 1490 ± 110 nM | 1170 ± 90 nM | 7690 ± 720 nM |  |  |  |  |  |  |  |  |  | 
6 | O=C1OCCCC/C=C\CC/C=C\CCCCOC(=O)c2ccccc2OCc2ccc(cc2)COc2ccccc21 [7c, (14Z,18Z)-2,6,9,24-tetraoxa-1,7(1,2),4(1,4)-tribenzenacyclopentacosaphane-14,18-diene-8,25-dione] | 890 ± 90 nM | 3470 ± 310 nM | 350 ± 30 nM | 590 ± 40 nM | 390 ± 30 nM | 6550 ± 610 nM |  |  |  |  |  |  |  |  |  | 
7 | O=C1OCCCCCC/C=C\CC/C=C\CCCCCCOC(=O)c2ccccc2OCc2ccccc2COc2ccccc21 [8a, (13Z,17Z)-7,8,9,10,11,12,15,16,19,20,21,22,23,24,32,37-hexadecahydro-5H,26H-tribenzo[c,g,k][1,5,10,14]tetraoxacyclodotriacontine-5,26-dione] | 220 ± 20 nM | 1440 ± 110 nM | 150 ± 20 nM | 370 ± 20 nM | 300 ± 20 nM | 3370 ± 290 nM | dose dependent | comparable with the action of staurosporine | 19.36% | 63.04% |  |  |  |  |  | 
8 | O=C1OCCCCCC/C=C\CC/C=C\CCCCCCOC(=O)c2ccccc2OCc2cccc(c2)COc2ccccc21 [8b, (16Z,20Z)-2,6,9,28-tetraoxa-1,7(1,2),4(1,3)-tribenzenacyclononacosaphane-16,20-diene-8,29-dione] | 240 ± 20 nM | 1680 ± 140 nM | 160 ± 10 nM | 390 ± 40 nM | 310 ± 30 nM | 3480 ± 320 nM | dose dependent | comparable with the action of staurosporine | 41.71% | 59.16% | 64.36% | 58.0% | 26.49% | 58.15% | 4.13% | 
9 | O=C1OCCCCCC/C=C\CC/C=C\CCCCCCOC(=O)c2ccccc2OCc2ccc(cc2)COc2ccccc21 [8c, (16Z,20Z)-2,6,9,28-tetraoxa-1,7(1,2),4(1,4)-tribenzenacyclononacosaphane-16,20-diene-8,29-dione] | 190 ± 10 nM | 1210 ± 90 nM | 130 ± 10 nM | 340 ± 30 nM | 270 ± 20 nM | 3190 ± 280 nM | dose dependent |  | 26.26% | 55.93% |  |  |  |  |  | 
10 | Oc1cccc(C23C=C4CN(CCc5ccc(c(O)c5)-c5ccc(O)cc54)C2Cc2cccc(O)c23)c1 (centres unmarked) [Haouamine A] |  |  |  |  |  |  |  |  |  |  |  |  |  |  |  | 0.1 µg/mL (≈ 0.204 µM)
